For one compound, IC50 results are on record in PubChem BioAssay AID463142 (The Scripps Research Institute Molecular Screening Center, 2010).

In this experiment the target is Glutathione S-transferase omega-1 (Homo sapiens) (UniProt P78417). As to the kind of experiment: GSTO1 inhibitor potency, recombinant enzyme, late-stage follow-up, biochemical, SE-Rh probe, in-gel fluorescence, powder samples, set 2 (AID 463142). To be noted: recombinant GSTO1, SE-Rh probe labeling.

Structures are written as SMILES.

Sequence of Glutathione S-transferase omega-1 (Homo sapiens) (P78417 whole entry, looked up): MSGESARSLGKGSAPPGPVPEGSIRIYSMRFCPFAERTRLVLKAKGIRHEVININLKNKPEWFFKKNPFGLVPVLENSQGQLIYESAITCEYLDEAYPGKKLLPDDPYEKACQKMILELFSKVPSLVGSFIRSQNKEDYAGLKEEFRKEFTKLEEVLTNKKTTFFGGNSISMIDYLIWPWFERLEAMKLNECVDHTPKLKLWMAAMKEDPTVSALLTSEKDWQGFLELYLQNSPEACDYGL

As to `O=C(CCl)N(CCCNC(=O)C(F)(F)F)c1ccc(Cl)cc1`, the half-inhibitory concentration (IC50) is 40 nM.
